In EP4603105A1, “PHARMACEUTICAL COMPOSITION CONTAINING CYCLIC COMPOUND HAVING SELECTIVE KRAS INHIBITORY EFFECT AGAINST HRAS AND NRAS” (CHUGAI SEIYAKU KABUSHIKI KAISHA, priority 2022, dated 2024):
Like-named read-outs stand apart in the source and are kept apart here.

Columns and labels:
[1] = target: GDP-bound NRAS wild-type protein (Homo sapiens, UniProt P01111); assay: Binding to NRAS by surface plasmon resonance (SPR), KD and KD ratio to KRAS
How it was run: (§1)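 Running buffer contained 10 µM GDP and 10 mM MgCl2 to keep RAS in the GDP state, with 4% DMSO at pH 7.4. Compounds were flowed at 100 µL/min in 75 s steps of rising concentration over captured biotin-Avi RAS at 30°C. Sensorgrams were fitted 1:1 for KD.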

HRAS wild-type protein = HRAS wild-type protein (Homo sapiens, UniProt P01112); assay: Binding to HRAS by surface plasmon resonance (SPR), KD and KD ratio to KRAS
How it was run: as §1

[2] = system: human lung cancer strain NCI-H441; assay type: cell-based
How it was run: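 Step one: dispense the test compound in serial DMSO dilutions. Step three: add the reagent and measure […].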

[3] = ratio of KD value for GDP-bound NRAS wild-type protein to KD value for KRAS (SPR)
[4] = ratio of KD value for HRAS wild-type protein to KD value for KRAS (SPR)
[5] = ratio of KD for GDP-bound NRAS wild-type protein to KD for KRAS
[6] = ratio of KD for HRAS wild-type protein to KD for KRAS
[7] = ratio of the KD value with respect to GDP-bound NRAS wild-type protein to the KD value with respect to KRAS
[8] = ratio of the KD value with respect to HRAS wild-type protein to the KD value with respect to KRAS

Sequence of HRAS wild-type protein (P01112 whole entry): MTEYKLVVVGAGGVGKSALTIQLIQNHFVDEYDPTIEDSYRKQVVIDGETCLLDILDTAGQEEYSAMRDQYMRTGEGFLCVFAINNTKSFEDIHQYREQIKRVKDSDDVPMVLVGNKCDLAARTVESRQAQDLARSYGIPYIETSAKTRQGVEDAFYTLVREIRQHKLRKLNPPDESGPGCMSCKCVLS
Sequence of GDP-bound NRAS wild-type protein (P01111 whole entry): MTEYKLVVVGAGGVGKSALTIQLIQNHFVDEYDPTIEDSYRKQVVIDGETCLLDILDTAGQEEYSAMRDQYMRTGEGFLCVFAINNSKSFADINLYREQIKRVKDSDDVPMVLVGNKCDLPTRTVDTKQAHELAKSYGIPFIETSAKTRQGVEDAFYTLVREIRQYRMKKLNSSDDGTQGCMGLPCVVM

| SMILES | IC50 [2] [nM] | NRAS /KRAS [1, 5] | HRAS /KRAS (HRAS wild-type protein; [6]) | also measured |
| --- | --- | --- | --- | --- |
| CCO[C@@H]1C[C@H]2C(=O)NC3(CCC3)C(=O)N(C)[C@@H](C3CCCC3)C(=O)N(C)[C@H](C(=O)N(C)C)CC(=O)N(C)[C@@H](CC3CCCC3)C(=O)N[C@@H]([C@@H](C)CC)C(=O)N(C)CC(=O)N(C)[C@H]3C/C=C\CCN(C3=O)[C@@H](Cc3ccc(C)cc3)C(=O)N(C)CC(=O)N[C@@H](CCc3ccc(Cl)c(Cl)c3)C(=O)N2C1 [PP1487] | 46.6 |  |  | NRAS /KRAS [1, 3]: A (a compound having 10 or more and less than 20 is denoted as A); HRAS /KRAS (HRAS wild-type protein; [4]): A (a compound having 10 or more and less than 20 is denoted as A) |
| CCC[C@H]1C(=O)N[C@@H](C2CCCC2)C(=O)N(C)CC(=O)N(C)[C@H]2C/C=C\CCN(C2=O)[C@@H](Cc2ccc(C(F)(F)F)cc2)C(=O)N(C)CC(=O)N[C@@H](CCc2ccc(C(F)(F)F)c(Cl)c2)C(=O)N2C[C@H](OCC)C[C@H]2C(=O)NC2(CC(C)(C)C2)C(=O)N(C)[C@@H](CC(C)(C)C)C(=O)N(C)[C@H](C(=O)N(C)C)CC(=O)N1C [PP2971] | 5.1 | A (a compound having 10 or more and less than 20 is denoted as A) | A (a compound having 10 or more and less than 20 is denoted as A) |  |
| CCO[C@@H]1C[C@H]2C(=O)NC3(CC(C)(C)C3)C(=O)N(C)[C@@H](C(CC)CC)C(=O)N(C)[C@H](C(=O)N(C)C)CC(=O)N(C)[C@H]3CCCCC/C=C/c4ccc(cc4)C[C@@H](C(=O)N(C)CC(=O)N[C@@H](CCc4cc(F)c(C(F)(F)F)c(F)c4)C(=O)N2C1)N1CC/C=C\C[C@@H](C1=O)N(C)C(=O)CN(C)C(=O)[C@H]([C@@H](C)CC)NC3=O [PP3048] | 11.1 | A (a compound having 10 or more and less than 20 is denoted as A) | A (a compound having 10 or more and less than 20 is denoted as A) |  |
| CC[C@H](C)[C@@H]1NC(=O)[C@H](CC)N(C)C(=O)C[C@@H](C(=O)N(C)CC)N(C)C(=O)[C@H](C2CCCC2)N(C)C(=O)C2(CC(C)(C)C2)NC(=O)[C@@H]2C[C@@H](C)CN2C(=O)[C@H](CCc2ccc(C(F)(F)F)c(Cl)c2)NC(=O)CN(C)C(=O)[C@H](Cc2ccc(C)cc2)N2CC/C=C\C[C@@H](C2=O)N(C)C(=O)CN(C)C1=O [PP1876] | 23 |  |  | NRAS /KRAS [1, 3]: A (a compound having 10 or more and less than 20 is denoted as A); HRAS /KRAS (HRAS wild-type protein; [4]): A (a compound having 10 or more and less than 20 is denoted as A) |
| CCO[C@@H]1C[C@H]2C(=O)NC3(CCC3)C(=O)N(C)[C@@H](C3CCCC3)C(=O)N(C)[C@H](C(=O)N(C)C)CC(=O)N(C)[C@@H](Cc3cccc(Cl)c3)C(=O)N[C@@H]([C@@H](C)CC)C(=O)N(C)CC(=O)N(C)[C@H]3CCCCCN(C3=O)[C@@H](Cc3ccc(C(F)(F)F)cc3)C(=O)N(C)CC(=O)N[C@@H](CCc3cc(F)c(C(F)(F)F)c(F)c3)C(=O)N2C1 [PP0939] | 114 | B (a compound having 3 or more and less than 10 is denoted as B) | B (a compound having 3 or more and less than 10 is denoted as B) |  |
| CC[C@H](C)[C@@H]1NC(=O)[C@@H]2CCCCc3ccc(cc3)C[C@@H](C(=O)N(C)CC(=O)N[C@@H](CCc3ccc(C(F)(F)F)c(OC)c3)C(=O)N3C[C@H](OC(C)C)C[C@H]3C(=O)NC3(CC(C)(C)C3)C(=O)N(C)[C@@H](C3CCCC3)C(=O)N(C)[C@H](C(=O)N(C)CC)CC(=O)N2C)N2CC/C=C\C[C@@H](C2=O)N(C)C(=O)CN(C)C1=O [PP3078] | 2.3 | A (a compound having 10 or more and less than 20 is denoted as A) | B (a compound having 3 or more and less than 10 is denoted as B) |  |
| CCO[C@@H]1C[C@H]2C(=O)NC3(CC(C)(C)C3)C(=O)N(C)[C@@H](C(CC)CC)C(=O)N(C)[C@H](CC)CC(=O)N(C)[C@@H](CC3CC3)C(=O)N[C@@H]([C@@H](C)CC)C(=O)N(C)CC(=O)N(C)[C@H]3C/C=C\CCN(C3=O)[C@@H](Cc3ccc(C(F)(F)F)cc3)C(=O)N(C)CC(=O)N[C@@H](CCc3cc(F)c(C(F)(F)F)c(F)c3)C(=O)N2C1 [PP1628] | 150 |  |  | NRAS /KRAS [1, 3]: A (a compound having 10 or more and less than 20 is denoted as A); HRAS /KRAS (HRAS wild-type protein; [4]): A (a compound having 10 or more and less than 20 is denoted as A) |
| CCC[C@H]1C(=O)N[C@@H](C2CCCCC2)C(=O)N(C)CC(=O)N(C)[C@H]2C/C=C\CCN(C2=O)[C@@H](Cc2ccc(C(F)(F)F)cc2)C(=O)N(C)CC(=O)N[C@@H](CCc2ccc(C(F)(F)F)c(Cl)c2)C(=O)N2C[C@H](OCC)C[C@H]2C(=O)NC2(CC(C)(C)C2)C(=O)N(C)[C@@H]([C@@H](C)CC)C(=O)N(C)[C@H](C(=O)N(C)C)CC(=O)N1C [PP3015] | 103 | AA (a compound having 20 or more is denoted as AA) | A (a compound having 10 or more and less than 20 is denoted as A) |  |
| CCOC[C@H]1C(=O)N[C@@H]([C@@H](C)CC)C(=O)N(C)CC(=O)N(C)[C@H]2C/C=C\CCN(C2=O)[C@@H](Cc2ccc(C(F)(F)F)cc2)C(=O)N(C)CC(=O)N[C@@H](CCc2ccc(C(F)(F)F)c(OC)c2)C(=O)N2C[C@H](OCC)C[C@H]2C(=O)NC2(CC(C)(C)C2)C(=O)N(C)[C@@H](C2CCCC2)C(=O)N(C)[C@H](C(=O)N(C)CC)CC(=O)N1C [PP2014] | 6.9 |  |  | NRAS /KRAS [1, 7]: A (a compound having 10 or more and less than 20 is denoted as A); HRAS /KRAS (HRAS wild-type protein; [8]): A (a compound having 10 or more and less than 20 is denoted as A) |
| CCO[C@@H]1C[C@H]2C(=O)NC3(CCC3)C(=O)N(C)[C@@H](C3CCCC3)C(=O)N(C)[C@H](C(=O)N(C)CCOC)CC(=O)N(C)[C@@H](CC(C)C)C(=O)N[C@@H]([C@@H](C)CC)C(=O)N(C)CC(=O)N(C)[C@H]3C/C=C\CCN(C3=O)[C@@H](Cc3ccc(C(F)(F)F)cc3)C(=O)N(C)CC(=O)N[C@@H](CCc3ccc(Cl)c(Cl)c3)C(=O)N2C1 [PP1326] | 23.1 |  |  | NRAS /KRAS ([1]; ratio of KD with respect to GDP-bound NRAS wild-type protein to KD with respect to KRAS): AA (a compound having 20 or more is denoted as AA); HRAS /KRAS (HRAS wild-type protein; ratio of KD with respect to HRAS wild-type protein to KD with respect to KRAS): A (a compound having 10 or more and less than 20 is denoted as A) |
| CCC[C@H]1C(=O)N[C@@H]([C@@H](C)CC)C(=O)N(C)CC(=O)N(C)[C@H]2C/C=C\CCN(C2=O)[C@@H](Cc2ccc(C(F)(F)F)cc2)C(=O)N(C)CC(=O)N[C@@H](CCc2ccc(C3CC3)c(Cl)c2)C(=O)N2C[C@H](OCC)C[C@H]2C(=O)NC2(CC(C)(C)C2)C(=O)N(C)[C@@H](C2CCCC2)C(=O)N(C)[C@H](C(=O)N(C)C)CC(=O)N1C [PP2858] |  | A (a compound having 10 or more and less than 20 is denoted as A) | B (a compound having 3 or more and less than 10 is denoted as B) | IC50 ([2]; NCI-H441 cells, 4 days, CellTiter-Glo, read-out: NCl-H441 IC50): 11.8 nM |
| CC[C@H](C)[C@@H]1NC(=O)[C@H](CC(C)C)N(C)C(=O)C[C@@H](C(=O)N(C)C)N(C)C(=O)[C@H](C2CCCC2)N(C)C(=O)C2(CC(C)(C)C2)NC(=O)[C@@H]2CC(F)(F)CN2C(=O)[C@H](CCc2cc(F)c(C(F)(F)F)c(F)c2)NC(=O)CN(C)C(=O)[C@H](Cc2ccc(C(F)(F)F)cc2)N2CC/C=C\C[C@@H](C2=O)N(C)C(=O)CN(C)C1=O [PP1715] | 2.7 |  |  | NRAS /KRAS [1, 3]: AA (a compound having 20 or more is denoted as AA); HRAS /KRAS (HRAS wild-type protein; [4]): A (a compound having 10 or more and less than 20 is denoted as A) |
| C#CC[C@H]1C(=O)N[C@@H]([C@@H](C)CC)C(=O)N(C)CC(=O)N(C)[C@H]2C/C=C\CCN(C2=O)[C@@H](Cc2ccc(C(F)(F)F)cc2)C(=O)N(C)CC(=O)N[C@@H](CCc2ccc(Cl)c(Cl)c2)C(=O)N2C[C@H](OCC)C[C@H]2C(=O)NC2(CC(C)(C)C2)C(=O)N(C)[C@@H](C2CCCC2)C(=O)N(C)[C@H](C(=O)N(C)CC)CC(=O)N1C [PP2843] | 17.7 | A (a compound having 10 or more and less than 20 is denoted as A) | A (a compound having 10 or more and less than 20 is denoted as A) |  |
| CCC[C@H]1C(=O)N[C@@H]([C@@H](C)CC)C(=O)N2CCC[C@H]2C(=O)N(C)[C@H]2C/C=C\CCN(C2=O)[C@@H](Cc2ccc(C(F)(F)F)cc2)C(=O)N(C)CC(=O)N[C@@H](CCc2ccc(C(F)(F)F)c(OC)c2)C(=O)N2C[C@H](OCC)C[C@H]2C(=O)N(C)C2(CCC2)C(=O)N(C)[C@@H](C2CCCC2)C(=O)N(C)[C@H](C(=O)N2CCCC2)CC(=O)N1C [PP3101] | 4.9 | A (a compound having 10 or more and less than 20 is denoted as A) | A (a compound having 10 or more and less than 20 is denoted as A) |  |
| CCC[C@H]1C(=O)N[C@@H](C(CC)CC)C(=O)N(C)CC(=O)N(C)[C@H]2C/C=C\CCN(C2=O)[C@@H](Cc2ccc(C)cc2)C(=O)N(C)CC(=O)N[C@@H](CCc2ccc(C(F)(F)F)c(Cl)c2)C(=O)N2C[C@H](OCC)C[C@H]2C(=O)NC2(CC(C)(C)C2)C(=O)N(C)[C@@H](C2CCCC2)C(=O)N(C)[C@H](C(=O)N(C)C)CC(=O)N1C [PP2209] | 37 |  |  | NRAS /KRAS [1, 7]: A (a compound having 10 or more and less than 20 is denoted as A); HRAS /KRAS (HRAS wild-type protein; [8]): A (a compound having 10 or more and less than 20 is denoted as A) |
